Some test systems named below: LOX IMVI melanoma; MDA-MB-231 breast; K-562 leukemia; A498 renal; HS 578T breast; U251 CNS; NCI-H23 lung; SN12C renal; UACC-257 melanoma; MOLT-4 leukemia.
What all share (assay): NCI-60 cell line screen, 48 h

Our source for the GI50 and TGI values is PubChem BioAssay (NCI).

Structures are written as SMILES.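 A five-concentration, 48-hour dose response in 96-well plates underlies each endpoint, interpolated linearly between surrounding concentrations. GI50 marks 50% less growth. TGI marks complete inhibition of growth.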 Some results are limits rather than exact numbers.

Regarding `CCSc1nc(N=Cc2cccs2)c2cn[nH]c2n1`, the GI50 in the experiment on LOX IMVI melanoma is 7.89 µM; with MDA-MB-231 breast, 4.51 µM; in the experiment on K-562 leukemia, 26.1 µM; in the experiment with A498 renal, 10.9 µM; in the experiment with HS 578T breast, 16.2 µM; with U251 CNS, 69.4 µM. Further, the GI50 in the experiment on NCI-H23 lung was 11.2 µM; in the experiment with SN12C renal it was 61.9 µM; in the experiment on UACC-257 melanoma it was 61 µM; in the experiment with MOLT-4 leukemia, 35.8 µM. Moreover, the TGI in the experiment on LOX IMVI melanoma was over 100 µM; with MDA-MB-231 breast, over 100 µM; with K-562 leukemia, over 100 µM; in the experiment on A498 renal, 38.1 µM; in the experiment with HS 578T breast, over 100 µM; in the experiment with U251 CNS it was over 100 µM. Also, the TGI in the experiment on NCI-H23 lung is 23.2 µM; in the experiment with SN12C renal it was over 100 µM; in the experiment with UACC-257 melanoma it was over 100 µM; in the experiment on MOLT-4 leukemia, over 100 µM.
